The values below are quoted from earlier work in patent US20230008367A1, “COMPOUNDS USEFUL FOR TREATING LIVER DISEASES” (ABIONYX PHARMA SA, priority 2019, published 2023).

This data set has as its system adults with NASH and fibrosis. To be noted: Phase 3 trial.

On to `CSc1ccc(C(=O)/C=C/c2cc(C)c(OC(C)(C)C(=O)O)c(C)c2)cc1` [elafibranor], for which the “primary endpoint of NASH resolution without worsening of fibrosis” value is reported as “did not demonstrate a statistically significant effect”.
